Article PMC12118597 (Science Advances, 2025)
Several values for one entry are separate records, joined by “and”; a condition that tells them apart may be missing. Equal entries are not always repeated. Where two headings read alike, the source gives them in different places.

Biological target: SARS-CoV-2 NSP3 macrodomain (Mac1) (Severe acute respiratory syndrome coronavirus 2, UniProt P0DTD1)
Assay type: binding
Settings: for 1-BDC: PanDDA background density correction factor; for Total number of conformations: ligand conformations modeled in the crystal structure; for 2*(1-BDC) (%): occupancy estimate from PanDDA; for Refined ligand occupancy (%): refined crystallographic occupancy
[1] = TRUE = crystal structure with ligand obtained
[2] = crystal soak 5 mM, P43 crystal form
[3] = site of Mac1 occupied in the X-ray crystal structure
[4] = crystal soak 10 mM, P43 crystal form
[5] = site of ligand in X-ray crystal structure
[6] = ligand-bound crystal structure obtained (TRUE)
[7] = site occupied in X-ray crystal structure

Row | SMILES | Occupancy difference (refined_occupancy - 2*(1-BDC)) | 1-BDC | X-ray crystal structure [1] | Total number of conformations | 2*(1-BDC) (%) | Refined ligand occupancy (%) | PanDDA run, overall: Hit [4] | PanDDA run, DMSO background map: 1-BDC (crystal soak 10 mM) | PanDDA run, DMSO background map: Hit (crystal soak 10 mM) | Binding site [5] | PanDDA run, overall: Modeled [4] | also measured
1 | CCC1(O)CCN(c2ncnc3[nH]ccc23)C1 (centres unmarked) [AVI-612] | 0 | 0.17 | TRUE | 1 | 34 | 34 | – | – | – | – | – | PanDDA run, overall: Hit [2]: TRUE; PanDDA run, DMSO background map: 1-BDC (crystal soak 5 mM): 0.17; PanDDA run, DMSO background map: Hit (crystal soak 5 mM): TRUE; Binding site [3]: Adenosine
2 | CN(C)C[C@@]1(O)CCCN(c2ncnc3[nH]ccc23)C1 [AVI-614] | – | – | – | – | – | – | TRUE | 0.17 | TRUE | – | – | PanDDA run, overall: Modeling comment (crystal soak 10 mM): Weak density, not modeled
3 | O[C@@H]1CN(c2ncnc3[nH]ccc23)C[C@H]1F [AVI-616] | 0 | 0.2 | TRUE | 1 | 40 | 40 | TRUE | 0.2 | TRUE | – | – | Binding site [3]: Adenosine
4 | O[C@@H]1COC[C@H]1Nc1ncnc2[nH]ccc12 [AVI-1443] | – | – | – | – | – | – | – | – | – | – | – | PanDDA run, overall: Modeling comment (crystal soak 5 mM): Weak density, not modeled; PanDDA run, overall: Hit [2]: TRUE; PanDDA run, DMSO background map: 1-BDC (crystal soak 5 mM): 0.05 and 0.04; PanDDA run, DMSO background map: Hit (crystal soak 5 mM): TRUE
5 | O[C@H]1COC[C@@H]1Nc1ncnc2[nH]ccc12 [AVI-1444, (3R,4S)-4-((7H-pyrrolo[2,3-d]pyrimidin-4-yl)amino)tetrahydrofuran-3-ol] | 0 | 0.08 | TRUE | 1 | 16 | 16 | TRUE | 0.08 and 0.11 | TRUE | Adenosine | – | –
6 | O=C(O)C(F)(F)F.OC1c2ccccc2CC1Nc1ncnc2[nH]ccc12 (centres unmarked) [AVI-3634] | – | – | – | – | – | – | – | – | – | – | – | PanDDA run, overall: Modeling comment (crystal soak 10 mM): TFA only
7 | CCC(Nc1ncnc2[nH]ccc12)C(C)O (centres unmarked) [AVI-3635] | 0 | 0.14 | TRUE | 2 | 28 | 28 | TRUE | 0.23 and 0.14 | TRUE | Adenosine | TRUE | –
8 | OCC(CC(F)(F)F)Nc1ncnc2[nH]ccc12 (centres unmarked) [AVI-3637] | 0 | 0.23 | TRUE | 1 | 46 | 46 | TRUE | 0.23 | TRUE | Adenosine | – | –
9 | OCC(Nc1ncnc2[nH]ccc12)C1CCC1 (centres unmarked) [AVI-3638] | 0 | 0.13 | TRUE | 1 | 26 | 26 | TRUE | 0.13 | TRUE | Adenosine | TRUE | –
10 | O=C(O)C(F)(F)F.O[C@H]1CCC[C@@H]1Nc1ncnc2[nH]ccc12 [AVI-3639] | 0 | 0.11 | TRUE | 1 | 22 | 22 | TRUE | 0.11 | TRUE | Adenosine | TRUE | –
11 | OCC(CC1CCC1)Nc1ncnc2[nH]ccc12 (centres unmarked) [AVI-3641] | 0 | 0.18 | TRUE | 1 | 36 | 36 | TRUE | 0.18 | TRUE | Adenosine | TRUE | –
12 | OCC(CC(O)c1ccccc1)Nc1ncnc2[nH]ccc12 (centres unmarked) [AVI-3642] | 0 | 0.17 | TRUE | 1 | 34 | 34 | TRUE | 0.17 | TRUE | Adenosine | TRUE | –
13 | CCCC(CO)Nc1ncnc2[nH]ccc12 (centres unmarked) [AVI-3643] | 0 | 0.16 | TRUE | 1 | 32 | 32 | TRUE | 0.16 | TRUE | Adenosine | TRUE | –
14 | C#CCC(CO)Nc1ncnc2[nH]ccc12 (centres unmarked) [AVI-3644] | 0 | 0.18 | TRUE | 1 | 36 | 36 | TRUE | 0.18 | TRUE | Adenosine | TRUE | –
15 | O=C(O)C(F)(F)F.OCC(Nc1ncnc2[nH]ccc12)C1CCCO1 (centres unmarked) [AVI-3645] | – | – | – | – | – | – | TRUE | 0.22 | TRUE | – | – | PanDDA run, overall: Modeling comment [4]: Weak density, not modeled; PanDDA run, TFA/DMSO background map: 1-BDC (crystal soak 10 mM): 0.12; PanDDA run, TFA/DMSO background map: Hit (crystal soak 10 mM): TRUE
16 | OC1CCCN(c2ncnc3[nH]ccc23)C1 (centres unmarked) [AVI-3646] | 0 | 0.22 | TRUE | 1 | 44 | 44 | TRUE | 0.22 | TRUE | – | TRUE | Binding site [3]: Adenosine
17 | CC(C)(C)CC(CO)Nc1ncnc2[nH]ccc12 (centres unmarked) [AVI-3648] | 0 | 0.13 | TRUE | 1 | 26 | 26 | TRUE | 0.13 | TRUE | Adenosine | TRUE | –
18 | OCC(Nc1ncnc2[nH]ccc12)C1CCCC1 (centres unmarked) [AVI-3649] | 0 | 0.16 | TRUE | 1 | 32 | 32 | TRUE | 0.16 | TRUE | Adenosine | TRUE | –
19 | OCC(Cc1c[nH]c2ccccc12)Nc1ncnc2[nH]ccc12 (centres unmarked) [AVI-3650] | 0 | 0.15 | TRUE | 2 | 30 | 30 | TRUE | 0.15 | TRUE | Adenosine | TRUE | –
20 | OC(c1ccccc1)C1CCCN1c1ncnc2[nH]ccc12 (centres unmarked) [AVI-3652] | 0 | 0.22 | – | 1 | 44 | 44 | TRUE | 0.22 | TRUE | – | TRUE | X-ray crystal structure [6]: TRUE; Binding site [7]: Adenosine
21 | O=C(O)C(F)(F)F.OC[C@@H](CCc1ccccc1)Nc1ncnc2[nH]ccc12 [AVI-3654] | – | – | – | – | – | – | TRUE | 0.14 | TRUE | – | – | PanDDA run, overall: Modeling comment [4]: Weak density for phenyl, not modeled; PanDDA run, TFA/DMSO background map: 1-BDC (crystal soak 10 mM): 0.07; PanDDA run, TFA/DMSO background map: Hit (crystal soak 10 mM): TRUE
22 | CC1CCN(c2ncnc3[nH]ccc23)C1CO (centres unmarked) [AVI-3655] | 0 | 0.21 | – | 1 | 42 | 42 | TRUE | 0.21 | TRUE | – | TRUE | X-ray crystal structure [6]: TRUE; Binding site [7]: Adenosine
23 | CO[C@@H]1C[C@H](CO)N(c2ncnc3[nH]ccc23)C1 [AVI-3656] | 0 | 0.26 | – | 1 | 52 | 52 | TRUE | 0.26 | TRUE | – | TRUE | X-ray crystal structure [6]: TRUE; Binding site [7]: Adenosine
